Reference: patent US7585855B2, “Bengamides with a substituted caprolactam cycle, method for the preparation thereof, compositions containing them and use thereof” (Aventis Pharma SA, priority 2004, dated 2009)

System: Hep-G2 cells
Assay: Inhibition of cell proliferation of Hep-G2 cells (intracellular ATP, CellTiterGlo)
Format: cell-based
Conditions: Homo sapiens, HepG2, 72 hours incubation, ATP content, read-out: IC 50 (μM)/HEP G2
Experimental: The antiproliferative activity of product 3 was determined by measuring the inhibition of cell proliferation of Hep-G2 cells. The cells are subcultured in a cell culture medium at a concentration of 1000 cells per well, and incubated for 4 hours at 37° C. and 5% CO2.
Medium used for the Hep-G2 cell culture: Dubelcco's modified Eagle's medium/Ham mixture F12 (Gibco); NEAA (10%; nonessential amino acids, Gibco); sodium pyruvate (1%, Gibco); L-glutamine (1%, Gibco); fetal calf serum (5%; PAA).
After 4 hours, the test products dissolved in a DMSO/cell culture medium mixture are added at various concentrations and the resulting mixtures are incubated for 72 hours at 37° C. and 5% CO2. The intracellular ATP content was measured using the CellTiterGlo test reagent (Promega).

SMILES | IC50
CO[C@@H](C(=O)N[C@H]1CCCCNC1=O)[C@H](O)[C@@H](O)[C@H](O)/C=C/C(C)C [Bengamide E] | 7 µM
CCC(C)/C=C/[C@@H](O)[C@H](O)[C@@H](O)[C@@H](OC)C(=O)N[C@H]1CCCCN(Cc2ccccc2)C1=O (stereo partly drawn) [Example 3, N-[(S)-1-(4-benzyl)-2-oxoperhydroazepin-3-yl]-(E)-(2R,3R,4S,5R)-3,4,5-trihydroxy-2-methoxy-8-methyldec-6-enamide] | 0.02 µM
